The results in this text go back to US20140163026A1, “8-ETHYL-6-(ARYL)PYRIDO[2,3-D]PYRIMIDIN-7(8H)-ONES FOR THE TREATMENT OF NERVOUS SYSTEM DISORDERS AND CANCER” (Afraxis Holdings, Inc., priority 2011, published 2014).

The IC50 is the concentration at which inhibition is half-maximal. Read a low IC50 as higher potency.

What all share (format): biochemical
One test addresses PAK1 (Homo sapiens, UniProt Q13153). In words: In vitro PAK inhibition assay (SelectScreen, Ser/Thr 19 peptide). The method, then:
(§1) Compounds are screened in 1% DMSO (final) in the well. For 10 point titrations, 3-fold serial dilutions are conducted.
(§2) All Peptide/Kinase Mixtures are diluted to a 2× working concentration in the appropriate Kinase Buffer
The 2×PAK1/Ser/Thr 19 mixture is prepared in 50 mM HEPES pH 7.5, 0.01% BRIJ-35, 10 mM MgCl2, 1 mM EGTA.
(§3) This control yields 100% cleaved peptide in the Development Reaction.
(§4) The 100% Phosphorylation Control, which consists of a synthetically phosphorylated peptide of the same sequence as the peptide substrate, is designed to allow for the calculation of percent phosphorylation.
(§5) This control is designed to produce a 10-50%* phosphorylated peptide in the Kinase Reaction.
(§6) A known inhibitor control standard curve, 10 point titration, is run for each individual kinase on the same plate as the kinase to ensure the kinase is inhibited within an expected IC50 range previously determined.
(§7) Add the following solutions to a well in a 384-well plate: • 2.5 μL of 4× Test Compound OR (100 nL 100× Test Compound plus 2.4 μL kinase buffer) • 5 μL of 2× Peptide/Kinase (PAK) Mixture • 2.5 μL of 4×ATP Solution • 2. Shake the plate for 30-seconds • 3. Incubate the PAK Kinase Reaction at room temperature for 60-minutes • 4. Add 5 μL of Development Reagent Solution to each well • 5. Shake the plate for 30-seconds • 6. Incubate the Development Reaction for 60-minutes • 7. Determine the fluorescence using a fluorescence plate reader • 8. Analyze the fluorescence data
(§8) SelectScreen® Kinase Profiling Service uses XLfit from IDBS.
(§9) The representative IC50 value with a known inhibitor for each kinase was determined at the ATP bin nearest to the ATP Km app.

A further test addresses PAK2 (PAK65) (Homo sapiens, UniProt Q13177). In words: In vitro PAK inhibition assay (SelectScreen, Ser/Thr 20 peptide). How it is done: as §1, §2
The 2×PAK2 (PAK65)/Ser/Thr 20 mixture is prepared in 50 mM HEPES pH 7.5, 0.01% BRIJ-35, 10 mM MgCl2, 1 mM EGTA. The final 10 μL Kinase Reaction consists of 0.29-6 ng PAK2 (PAK65) and 2 μM Ser/Thr 20 in 50 mM HEPES pH 7.5, 0.01% BRIJ-35, 10 mM MgCl2, 1 mM EGTA.
as §3, §4, §5, §6, §7, §8, §9

In the next test the target is PAK3 (Homo sapiens, UniProt O75914). The description is as above. How it is done:
as §1, §2
The 2×PAK3/Ser/Thr 20 mixture is prepared in 50 mM HEPES pH 7.5, 0.01% BRIJ-35, 10 mM MgCl2, 1 mM EGTA.
as §3, §4, §5, §6, §7, §8, §9

A further test has as its target PAK4 (Homo sapiens, UniProt O96013). Described as above. How it is done: as §1, §2
The 2×PAK4/Ser/Thr 20 mixture is prepared in 50 mM HEPES pH 7.5, 0.01% BRIJ-35, 10 mM MgCl2, 1 mM EGTA. The final 10 μL Kinase Reaction consists of 0.1-0.75 ng PAK4 and 2 μM Ser/Thr 20 in 50 mM HEPES pH 7.5, 0.01% BRIJ-35, 10 mM MgCl2, 1 mM EGTA. After the 1 hour Kinase Reaction incubation, 5 μL of a 1:256 dilution of Development Reagent A is added.
as §3, §4
The minimum Emission Ratio in a screen is established by the 0% Inhibition Control, which contains active kinase. This control is designed to produce a 10-50%* phosphorylated peptide in the Kinase Reaction.
as §6
as §7, with “Bar-coded Corning, low volume NBS, black 384-well plate (Corning Cat. #3676) • 1. Add the” for “Add the”
SelectScreen® Kinase Profiling Service uses XLfit from IDBS. The dose response curve is curve fit to model number 205 (sigmoidal dose-response model).
The table below provides specifications and data around each kinase. The representative IC50 value with a known inhibitor for each kinase was determined at the ATP bin nearest to the ATP Km app.

PAK3, sequence (O75914 whole entry): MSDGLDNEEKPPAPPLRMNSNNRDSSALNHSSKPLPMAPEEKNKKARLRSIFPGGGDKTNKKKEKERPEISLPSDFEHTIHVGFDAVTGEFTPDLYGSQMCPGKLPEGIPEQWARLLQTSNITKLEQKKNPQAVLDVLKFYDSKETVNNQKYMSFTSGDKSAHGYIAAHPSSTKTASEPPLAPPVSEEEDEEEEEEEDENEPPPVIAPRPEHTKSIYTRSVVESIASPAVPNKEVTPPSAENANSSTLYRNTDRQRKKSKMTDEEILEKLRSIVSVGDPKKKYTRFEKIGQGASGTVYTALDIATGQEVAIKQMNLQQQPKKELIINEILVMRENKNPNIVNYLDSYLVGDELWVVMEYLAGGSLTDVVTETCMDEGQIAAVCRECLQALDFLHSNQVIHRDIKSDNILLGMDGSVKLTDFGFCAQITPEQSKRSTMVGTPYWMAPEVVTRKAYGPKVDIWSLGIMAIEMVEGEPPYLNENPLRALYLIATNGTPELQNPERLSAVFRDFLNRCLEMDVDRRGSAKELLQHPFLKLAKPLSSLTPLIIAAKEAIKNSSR
PAK2 (PAK65), sequence (Q13177 whole entry): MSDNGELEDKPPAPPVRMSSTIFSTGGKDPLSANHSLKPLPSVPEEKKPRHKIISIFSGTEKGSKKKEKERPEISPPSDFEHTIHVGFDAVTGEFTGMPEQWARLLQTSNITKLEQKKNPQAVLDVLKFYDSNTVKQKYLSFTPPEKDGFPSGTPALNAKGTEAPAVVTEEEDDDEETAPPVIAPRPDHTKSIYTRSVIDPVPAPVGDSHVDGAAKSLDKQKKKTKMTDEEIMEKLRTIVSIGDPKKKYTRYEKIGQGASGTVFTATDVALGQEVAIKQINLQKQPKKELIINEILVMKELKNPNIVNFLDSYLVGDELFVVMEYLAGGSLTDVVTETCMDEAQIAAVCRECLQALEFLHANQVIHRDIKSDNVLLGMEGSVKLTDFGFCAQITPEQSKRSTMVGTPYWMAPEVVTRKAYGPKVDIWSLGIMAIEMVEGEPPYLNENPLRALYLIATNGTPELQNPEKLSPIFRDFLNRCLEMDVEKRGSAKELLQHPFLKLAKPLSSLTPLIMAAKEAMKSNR
PAK4, sequence (O96013 whole entry): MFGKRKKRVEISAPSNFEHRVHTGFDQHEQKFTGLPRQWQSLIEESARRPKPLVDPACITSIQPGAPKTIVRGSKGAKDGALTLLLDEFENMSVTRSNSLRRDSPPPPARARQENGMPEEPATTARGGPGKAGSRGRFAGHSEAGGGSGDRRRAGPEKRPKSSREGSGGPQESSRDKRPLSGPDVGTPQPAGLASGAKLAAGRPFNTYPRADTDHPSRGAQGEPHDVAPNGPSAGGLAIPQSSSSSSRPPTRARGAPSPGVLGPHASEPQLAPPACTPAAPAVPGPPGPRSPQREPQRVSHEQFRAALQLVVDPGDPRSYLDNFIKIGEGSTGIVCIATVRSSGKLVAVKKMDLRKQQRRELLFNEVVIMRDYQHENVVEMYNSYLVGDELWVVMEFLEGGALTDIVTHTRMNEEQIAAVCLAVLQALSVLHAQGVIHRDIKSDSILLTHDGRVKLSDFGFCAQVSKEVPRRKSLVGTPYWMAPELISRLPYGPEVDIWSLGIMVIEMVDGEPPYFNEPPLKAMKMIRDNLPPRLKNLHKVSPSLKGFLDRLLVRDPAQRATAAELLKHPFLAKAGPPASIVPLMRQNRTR
PAK1, sequence (Q13153 whole entry): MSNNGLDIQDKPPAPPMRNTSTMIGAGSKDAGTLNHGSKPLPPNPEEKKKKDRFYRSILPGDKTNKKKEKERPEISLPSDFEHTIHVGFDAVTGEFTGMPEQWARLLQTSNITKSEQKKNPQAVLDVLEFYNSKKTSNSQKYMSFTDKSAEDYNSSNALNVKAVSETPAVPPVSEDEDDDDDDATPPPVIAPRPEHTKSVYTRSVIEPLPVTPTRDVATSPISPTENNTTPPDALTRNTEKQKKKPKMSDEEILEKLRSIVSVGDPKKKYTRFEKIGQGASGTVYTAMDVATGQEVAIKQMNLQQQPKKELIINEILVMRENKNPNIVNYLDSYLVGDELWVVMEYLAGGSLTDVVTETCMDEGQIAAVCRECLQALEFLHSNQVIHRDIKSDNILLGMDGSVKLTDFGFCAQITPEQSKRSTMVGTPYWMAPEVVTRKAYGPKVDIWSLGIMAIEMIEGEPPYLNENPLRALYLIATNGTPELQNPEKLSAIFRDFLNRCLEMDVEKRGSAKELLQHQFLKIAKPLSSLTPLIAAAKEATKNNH

As to `CCn1c(=O)c(-c2cc(C)c(-c3cccnc3C)cc2Cl)cc2cnc(Nc3ccc(C4CCN(C)CC4)cc3)nc21`, the IC50 at PAK1 was under 0.05 µM; against PAK2 (PAK65), under 0.05 µM; against PAK3 it was 0.05 to 0.5 µM; at PAK4, at least 5 µM.
With `CCn1c(=O)c(-c2ccc(-c3ccc(F)nc3C)cc2Cl)cc2cnc(Nc3ccc(C4CCN(C)CC4)cc3)nc21`, the 50% inhibitory concentration (IC50) against PAK1 was under 0.05 µM; against PAK2 (PAK65), 0.05 to 0.5 µM; against PAK3 it was 0.05 to 0.5 µM; against PAK4, at least 5 µM.
For the compound `CCn1c(=O)c(-c2ccc(-c3ccon3)s2)cc2cnc(Nc3ccc(N4CCN(C)CC4)cc3)nc21`, the 50% inhibitory concentration (IC50) was over 5 µM on PAK1, over 5 µM against PAK2 (PAK65), over 5 µM against PAK3 and at least 5 µM on PAK4.
As for `CCn1c(=O)c(-c2ccc(-c3cncs3)cc2Cl)cc2cnc(Nc3ccc(N4CCNCC4)c(F)c3)nc21`, the IC50 at PAK1 was under 0.05 µM; on PAK2 (PAK65) it was under 0.05 µM; against PAK3, under 0.05 µM; on PAK4 it was 0.5 to 5 µM.
In the case of `CCn1c(=O)c(-c2nc(C3CCN(C)CC3)sc2C)cc2cnc(Nc3ccc(N4CCN(C)CC4)cc3)nc21`, the half-inhibitory concentration (IC50) at PAK1 was over 5 µM; against PAK2 (PAK65), over 5 µM; against PAK3, over 5 µM; at PAK4, at least 5 µM.
Regarding `CCn1c(=O)c(-c2ccc(-c3cccnc3F)cc2Cl)cc2cnc(Nc3ccc(C4CCN(C)CC4)c(F)c3)nc21`, the half-inhibitory concentration (IC50) against PAK1 is under 0.05 µM; on PAK2 (PAK65), under 0.05 µM; at PAK3, under 0.05 µM; against PAK4, 0.5 to 5 µM.
On to `CCn1c(=O)c(-c2ccc(-c3noc(C)n3)s2)cc2cnc(Nc3ccc(N4CCN(C)CC4)cc3)nc21`, for which the concentration for half-maximal inhibition (IC50) is over 5 µM on PAK1, over 5 µM against PAK2 (PAK65), over 5 µM on PAK3 and at least 5 µM on PAK4.
Turning to `CCn1c(=O)c(-c2sc(C)nc2C)cc2cnc(Nc3ccc(N4CCN(C)CC4)cc3)nc21`, the IC50 at PAK1 was over 5 µM; on PAK2 (PAK65) it was over 5 µM; against PAK3 it was over 5 µM; on PAK4 it was at least 5 µM.
For the compound `CCN1CCC(c2ccc(Nc3ncc4cc(-c5ccc(-c6ccnc(C)c6)cc5Cl)c(=O)n(CC)c4n3)cc2)CC1`, the IC50 on PAK1 is under 0.05 µM; against PAK2 (PAK65) it was under 0.05 µM; against PAK3, 0.05 to 0.5 µM; against PAK4 it was at least 5 µM.
Take `CN1CCC(c2ccc(Nc3ncc4cc(-c5cc(-c6cnccn6)ccc5Cl)c(=O)n(C)c4n3)cc2)CC1`: the IC50 against PAK1 is 0.05 to 0.5 µM; on PAK2 (PAK65), 0.5 to 5 µM; against PAK3, 0.05 to 0.5 µM; at PAK4, at least 5 µM.
In the case of `CCn1c(=O)c(-c2ccc(-c3cnccn3)cc2F)cc2cnc(Nc3ccc(C4CCN(C)CC4)cc3)nc21`, the IC50 against PAK1 is under 0.05 µM; at PAK2 (PAK65) it was under 0.05 µM; against PAK3, under 0.05 µM; against PAK4, 0.05 to 0.5 µM.
With `CCn1c(=O)c(-c2ccc(-c3ccc(C)nc3F)cc2Cl)cc2cnc(Nc3ccc(CCN(C)C)cc3)nc21`, the IC50 at PAK1 is under 0.05 µM; against PAK2 (PAK65), under 0.05 µM; against PAK3, under 0.05 µM; on PAK4, 0.5 to 5 µM.
Consider `CCn1c(=O)c(-c2ccc(-c3noc(C)n3)cc2Cl)cc2cnc(Nc3ccc(C4=CCNCC4)cc3)nc21`, for which the IC50 is under 0.05 µM on PAK1, under 0.05 µM on PAK2 (PAK65), under 0.05 µM at PAK3 and 0.5 to 5 µM against PAK4.
Turning to `CCn1c(=O)c(-c2ccc(-c3ccc(C)s3)cc2Cl)cc2cnc(Nc3ccc(N4CCN(C)CC4)cc3)nc21`, the concentration for half-maximal inhibition (IC50) against PAK1 is under 0.05 µM; at PAK2 (PAK65) it was under 0.05 µM; against PAK3 it was 0.05 to 0.5 µM; on PAK4 it was at least 5 µM.
Turning to `CCn1c(=O)c(-c2ccc(-c3cccnc3C)cc2Cl)cc2cnc(Nc3ccc(N4CCN(C)CC4)cc3)nc21`, the half-inhibitory concentration (IC50) at PAK1 was under 0.05 µM; at PAK2 (PAK65), under 0.05 µM; against PAK3, under 0.05 µM; on PAK4, at least 5 µM.
Regarding `CCN1CCC(c2ccc(Nc3ncc4cc(-c5ccc(-c6cccnc6)cc5Cl)c(=O)n(CC)c4n3)cc2)CC1`, the IC50 was under 0.05 µM against PAK1, under 0.05 µM at PAK2 (PAK65), under 0.05 µM on PAK3 and 0.5 to 5 µM at PAK4.
In the case of `CCn1c(=O)c(-c2ccc(-c3cnc(C)s3)cc2Cl)cc2cnc(Nc3ccc(N4CCN(C)CC4)cc3)nc21`, the half-maximal inhibitory concentration (IC50) is under 0.05 µM at PAK1, under 0.05 µM on PAK2 (PAK65), under 0.05 µM against PAK3 and at least 5 µM at PAK4.
Turning to `CN1CCC(c2ccc(Nc3ncc4cc(-c5cc(-c6ccncc6)ccc5Cl)c(=O)n(C)c4n3)cc2)CC1`, the IC50 against PAK1 was 0.5 to 5 µM; at PAK2 (PAK65), over 5 µM; on PAK3 it was over 5 µM; on PAK4 it was at least 5 µM.
For `CCn1c(=O)c(-c2ccc(-c3cncnc3)cc2Cl)cc2cnc(Nc3ccc(N4CCN(C)CC4)cc3)nc21`, the IC50 against PAK1 was under 0.05 µM; against PAK2 (PAK65), under 0.05 µM; against PAK3 it was under 0.05 µM; on PAK4 it was 0.5 to 5 µM.
`CCn1c(=O)c(-c2ccc(-c3nccnc3C)cc2C)cc2cnc(Nc3ccc(C4CCN(C)CC4)cc3)nc21`: the IC50 is under 0.05 µM at PAK1, under 0.05 µM at PAK2 (PAK65), under 0.05 µM against PAK3 and at least 5 µM against PAK4.
For `CCn1c(=O)c(-c2ccc(-c3cccnc3F)cc2Cl)cc2cnc(Nc3ccc(C4CCN(C(C)C)CC4)cc3)nc21`, the IC50 against PAK1 was under 0.05 µM; against PAK2 (PAK65), under 0.05 µM; at PAK3, under 0.05 µM; at PAK4 it was 0.5 to 5 µM.
With `CCn1c(=O)c(-c2ccc(-c3ccc(C)nc3)cc2Cl)cc2cnc(Nc3ccc(C4CCN(C)CC4)cc3)nc21`, the IC50 was under 0.05 µM against PAK1, under 0.05 µM against PAK2 (PAK65), 0.05 to 0.5 µM on PAK3 and 0.5 to 5 µM at PAK4.
Turning to `CCn1c(=O)c(-c2ccc(-c3cnc(C)s3)cc2Cl)cc2cnc(Nc3ccc(C4CCNCC4)c(F)c3)nc21`, the 50% inhibitory concentration (IC50) against PAK1 was under 0.05 µM; against PAK2 (PAK65), under 0.05 µM; on PAK3, under 0.05 µM; on PAK4, 0.5 to 5 µM.
For the compound `CCn1c(=O)c(-c2ccc(-c3cccs3)s2)cc2cnc(Nc3ccc(N4CCN(C)CC4)cc3)nc21`, the IC50 was over 5 µM at PAK1, over 5 µM at PAK2 (PAK65), over 5 µM against PAK3 and at least 5 µM at PAK4.
For `CCn1c(=O)c(-c2ccc(-c3cccnc3)cc2Cl)cc2cnc(Nc3ccc(N4CCN(C)CC4)c(F)c3)nc21`, the half-maximal inhibitory concentration (IC50) is under 0.05 µM on PAK1, under 0.05 µM against PAK2 (PAK65), under 0.05 µM against PAK3 and 0.5 to 5 µM against PAK4.
As for `CCn1c(=O)c(-c2ccc(-c3cccnc3)cc2Cl)cc2cnc(Nc3ccc(C4CCNCC4)c(F)c3)nc21`, the 50% inhibitory concentration (IC50) against PAK1 was under 0.05 µM; on PAK2 (PAK65) it was under 0.05 µM; on PAK3 it was under 0.05 µM; against PAK4 it was 0.5 to 5 µM.
Consider `CCn1c(=O)c(-c2ccc(-c3cnc(C)s3)cc2Cl)cc2cnc(Nc3ccc(C4CCNC4)cc3)nc21` (stereo not shown), for which the half-maximal inhibitory concentration (IC50) at PAK1 is under 0.05 µM; at PAK2 (PAK65), under 0.05 µM; at PAK3, under 0.05 µM; at PAK4, 0.5 to 5 µM.
As to `CCn1c(=O)c(-c2ccc(-c3ccc(C)nc3F)cc2Cl)cc2cnc(Nc3ccc(C4CCN(C)CC4)cc3)nc21`, the 50% inhibitory concentration (IC50) was under 0.05 µM against PAK1, under 0.05 µM on PAK2 (PAK65), 0.05 to 0.5 µM at PAK3 and 0.5 to 5 µM at PAK4.
